Results on eight compounds are retold here after patent publication US7601687B2, “Mechanism for identifying drugs for the treatment of type II diabetes” (BioCrine AB, priority 2006, dated 2009).

One test concerns rat βGK promoter. Description: On-line monitoring of βGK promoter-driven GFP expression (prβGK.GFP) in transfected HIT-T15 cells, islet cells and islets. The following applies: for effect of inhibitor on insulin-stimulated βGK transcription / promoter activity: 5 mU/ml insulin 5 min, 150 nM BIM, 20 μM PD98059, 10 μM PD169316, 100 μM HNMPA-(AM)3, 400 nM AC, FIG. 5; for effect of inhibitor on insulin-stimulated βGK transcription / promoter activity / effect of inhibitor on insulin-stimulated βGK promoter activity (GFP) in the same co-transfected cell: 25 μM LY294002, 10 nM rapamycin; for effect of inhibitor on insulin-stimulated βGK promoter activity (GFP) in the same co-transfected cell: 5 mU/ml insulin, 400 nM AC, 100 μM HNMPA-(AM)3; for βGK promoter-driven GFP expression upon secretagogue stimulation: 50 mM KCl or 1 μM glibenclamide for 5 min at substimulatory glucose. Format: cell-based, hamster (HIT-T15), rat (islet cells). An excerpt: Construction of prIns1.GFP has been described earlier (Leibiger et al., 1998a). Vector prIns1.DsRed was generated by exchanging the EGFP-expression cassette versus the DsRed-expression cassette obtained from pDsRed1-1 (Clontech). Plasmid prβGK.GFP (i.e. prβGK-278.GFP) was generated by exchanging the CAT-SV40pA-expression cassette of prβGK-278.CAT (Leibiger et al., 1994a) versus the EGFP-bGHpA-expression cassette obtained from pRcCMVI.GFP (Moede et al., 1999). […] All vector constructions were verified by DNA sequence analysis. […] Expression constructs pCMV5.PKBα, pCMV5.PKBαΔ308/437, pCMV5.PDK1 and pCMV5.PDK1-antisense were kindly provided by Drs. P. Cohen and D. R. Alessi (MRC Phosphorylation Unit, University of Dundee, UK).
HIT cells were reported to show glucose responsiveness at subphysiological concentrations between 0.1 and 2 mM (Sharma et al., 1995). HIT cells were grown in RPMI 1640 medium supplemented with 100 units/ml penicillin, 100 μg/ml streptomycin, 2 mM glutamine and 10% fetal calf serum at 5% CO2 and 37° C. Pancreatic islets were isolated from normally fed male Wistar rats and from mice by collagenase digestion. Isolated islets were incubated overnight at 5% CO2 and 37° C. in RPMI 1640 medium, supplemented as described above. Transfection of HIT-T15 and islet cells was performed overnight by the lipofectamine technique in RPMI 1640 medium, without serum and antibiotics. For on-line monitoring, cells were grown and transfected on 24-mm glass coverslips. Following transfection, HIT cells were cultured for 12-18 h in RPMI 1640 medium containing 0.1 mM glucose, 10% fetal calf serum and supplemented as above. Before stimulation, islets and islet cells were incubated for 2 h in RPMI 1640 medium, supplemented as above but containing 3 mM glucose. All expression constructs were prepared using the Qiagen Plasmid Maxi Kit (Qiagen), except those used to produce the adenoviruses which where purified by ultracentrifugation via a CsCI-gradient (as described in Sambrook et al, 1989).
Islets were transduced with Ad.rβGK.GFP or Ad.CMV.GFP by incubating 50 islets with 1 ml virus-containing medium for 90 min at 37° C. and 5% CO2. Following transduction, islets were washed 3 times with PBS and cultured further in RPMI 1640 medium. Islets were stimulated 40-72 h after transduction, as described below and analyzed by laser-scanning confocal microscopy.
(§1) All experiments were performed in RPMI 1640 medium, supplemented as above. Protein kinase inhibitors, antibodies or nifedipine were added to the culture medium 30 min prior to stimulation and were kept in the medium throughout stimulation. After stimulation islets, islet cells and HIT cells were cultured further at substimulatory glucose concentrations (0.1 mM for HIT cells and 3 mM for islets and islet cells). For RNA-analysis, islets and cells were harvested 60 min after start of stimulation, if not indicated otherwise. For analysis of protein kinase activities or tyrosine phosphorylation, cells were harvested immediately following stimulation.
(§2) Detection of fluorescence by digital imaging fluorescence microscopy was performed as described previously (Leibiger et al., 1998a; Leibiger et al., 1998b). Briefly, transfected cells were grown on 24-mm glass coverslips. After stimulation the coverslips were placed into a perifusion chamber which was mounted on an inverted microscope (Zeiss Axiovert 135TV). Temperature was kept at 37° C. and the cells were perfused with RPMI 1640 medium. The objective lens used was a Zeiss-Fluar ×40/1.30 oil Imm Korr. Fluorescence imaging was performed with a cooled charged-coupled device camera (CH250 with KAF 1400, Photometrics, Tucson, Ariz.) connected to an imaging system (Inovision) with fluorescence excitation from a SPEX fluorolog-2 CM1T11I spectrofluorometer (Spex Industries).

For test [1], the system named is rat insulin-I gene promoter. Put plainly: On-line monitoring of insulin promoter-driven DsRed/GFP expression (prIns1.DsRed) in transfected HIT-T15 cells and islet cells. The format is cell-based, hamster (HIT-T15), rat (islet cells).
Text: Construction of prIns1.GFP has been described earlier (Leibiger et al., 1998a). Vector prIns1.DsRed was generated by exchanging the EGFP-expression cassette versus the DsRed-expression cassette obtained from pDsRed1-1 (Clontech). Plasmid prβGK.GFP (i.e. prβGK-278.GFP) was generated by exchanging the CAT-SV40pA-expression cassette of prβGK-278.CAT (Leibiger et al., 1994a) versus the EGFP-bGHpA-expression cassette obtained from pRcCMVI.GFP (Moede et al., 1999). […] All vector constructions were verified by DNA sequence analysis. Constructs for expression of the human Insulin Receptor A and B types, pCMVHIR(A) and pCMVHIR(B) and the control plasmid pCMVstop were kindly provided by Dr. A. Ullrich (Max-Planck-Institute for Biochemistry, Martinsried, Germany). Expression constructs pCMV5.PKBα, pCMV5.PKBαΔ308/437, pCMV5.PDK1 and pCMV5.PDK1-antisense were kindly provided by Drs. P. Cohen and D. R. Alessi (MRC Phosphorylation Unit, University of Dundee, UK).
(§3) Insulin-producing HIT-T15 cells were obtained from ATCC. HIT cells were reported to show glucose responsiveness at subphysiological concentrations between 0.1 and 2 mM (Sharma et al., 1995). HIT cells were grown in RPMI 1640 medium supplemented with 100 units/ml penicillin, 100 μg/ml streptomycin, 2 mM glutamine and 10% fetal calf serum at 5% CO2 and 37° C. Pancreatic islets were isolated from normally fed male Wistar rats and from mice by collagenase digestion. Isolated islets were incubated overnight at 5% CO2 and 37° C. in RPMI 1640 medium, supplemented as described above. Transfection of HIT-T15 and islet cells was performed overnight by the lipofectamine technique in RPMI 1640 medium, without serum and antibiotics. For on-line monitoring, cells were grown and transfected on 24-mm glass coverslips. Following transfection, HIT cells were cultured for 12-18 h in RPMI 1640 medium containing 0.1 mM glucose, 10% fetal calf serum and supplemented as above. Before stimulation, islets and islet cells were incubated for 2 h in RPMI 1640 medium, supplemented as above but containing 3 mM glucose. All expression constructs were prepared using the Qiagen Plasmid Maxi Kit (Qiagen), except those used to produce the adenoviruses which where purified by ultracentrifugation via a CsCI-gradient (as described in Sambrook et al, 1989).
as §1
as §2, with “Industries). The following filter-settings were used: for GFPs65T: excitation at 485 nm, a 505 nm dicroic mirror and an emission band-pass filter of 500-530 nm; for DsRed: excitation at 558 nm, a 565 nm dicroic mirror and a 580 nm long-pass filter for emission […]” for “Industries).”

Another test relates to βGK mRNA. Description: βGK mRNA steady-state levels (comparative RT-PCR) in cultured pancreatic islets / insulin-producing cells. The format is cell-based, rat. The following applies: 50 mM KCl or 1 μM glibenclamide for 5 min at substimulatory glucose. On the procedure: as §3, §1
RNA Analysis Levels of βGK mRNA were analyzed by RNase-protection assays and comparative RT-PCR. […] Quantification of the protected complexes was performed by phosphorimaging. […] Levels of μGK mRNA were analyzed by RT-PCR using primers 5′-[…]-3′(SEQ ID NO: 1) and 5′-[…]-3′(SEQ ID NO: 2) for characterizing μGK mRNA in HIT cells and primers 5′-[…]-3′(SEQ ID NO: 3) and 5′-[…]-3′(SEQ ID NO: 4) for μGK mRNA in rat and mouse pancreatic islets and islet cells. Levels of μ-actin mRNA were analyzed by RT-PCR using primers 5′-[…]-3′(SEQ ID NO: 5) and 5′-[…]-3′(SEQ ID NO: 6). […] PCR products were separated on a 6% polyacrylamide sequencing gel and analyzed by phosphorimaging. […]

Where [2] appears, read: co-transfected HIT cells, 5 mU insulin/ml (FIG. 9A).
[3] abbreviates: co-transfected HIT cells, 5 mU insulin/ml (FIG. 9B).
Where [4] appears, read: 2.6 nM IGF-I, insulin-producing cells.

As for `O=c1cc(N2CCOCC2)oc2c(-c3ccccc3)cccc12` [LY294002], in the test on rat βGK promoter, the “effect of inhibitor on insulin-stimulated βGK transcription / promoter activity” value was “not inhibited” and the “effect of inhibitor on insulin-stimulated βGK promoter activity (GFP) in the same co-transfected cell” value was “no effect”. Besides, the “concentration necessary to completely abolish insulin-stimulated βGK promoter activity” value with rat βGK promoter (setting [2]) was determined as 100 µM. Moreover, the “concentration that blocked insulin-stimulated insulin promoter activity” value in test [1] (setting [2]) worked out at 25 µM.

Turning to `COC[C@H]1OC(=O)c2coc3c2[C@@]1(C)C1=C(C3=O)[C@@H]2CCC(=O)[C@@]2(C)C[C@H]1OC(C)=O` [wortmannin], in the test on rat βGK promoter (setting [3]), the “concentration necessary to block insulin-stimulated βGK promoter activity” value worked out at 150 nM. The “concentration sufficient to inhibit insulin-stimulated insulin promoter activity” value in test [1] (setting [3]) stood at 50 nM.

Take `CN(C)CCCn1cc(C2=C(c3c[nH]c4ccccc34)C(=O)NC2=O)c2ccccc21` [bisindolylmalemide I]: the “effect of inhibitor on insulin-stimulated βGK transcription / promoter activity” value with rat βGK promoter is recorded as “not sensitive”.

On to `COc1cccc(-c2cc(=O)c3ccccc3o2)c1N` [PD98059], for which the “effect of inhibitor on insulin-stimulated βGK transcription / promoter activity” value in the test on rat βGK promoter is given as “not sensitive”.

For the compound IGF-I, in the test on rat βGK promoter (setting [4]), the “βGK promoter-driven reporter gene expression upon IGF-I stimulation” value was “did not activate”. For the same compound, in test [1] (setting [4]), the “insulin promoter-driven reporter gene expression upon IGF-I stimulation” value is reported as “did not activate”.

As for `CO[C@H]1C[C@@H]2CC[C@@H](C)[C@@](O)(O2)C(=O)C(=O)N2CCCC[C@H]2C(=O)O[C@H]([C@H](C)C[C@@H]2CC[C@@H](O)[C@H](OC)C2)CC(=O)[C@H](C)/C=C(\C)[C@@H](O)[C@@H](OC)C(=O)[C@H](C)C[C@H](C)/C=C/C=C/C=C/1C` [rapamycin], in the test on rat βGK promoter, the “effect of inhibitor on insulin-stimulated βGK transcription / promoter activity” value was “not inhibited” and the “effect of inhibitor on insulin-stimulated βGK promoter activity (GFP) in the same co-transfected cell” value is listed as “no effect”.

Turning to `[Cl-].[K+]` [KCI, KCl], in the test with βGK mRNA, the “βGK mRNA steady state levels upon secretagogue stimulation” value is “increase”. Also, the “βGK promoter-driven GFP expression upon secretagogue stimulation” value in the test with rat βGK promoter is on record as “elevation”.

Take `COc1ccc(Cl)cc1C(=O)NCCc1ccc(S(=O)(=O)NC(=O)NC2CCCCC2)cc1` [glibenclamide]: the “βGK mRNA steady state levels upon secretagogue stimulation” value in the test with βGK mRNA is reported as “increase”. Besides, the “βGK promoter-driven GFP expression upon secretagogue stimulation” value with rat βGK promoter was “elevation”.
